Experiment [1] deals with T1, F508del/F508del CFTR (Homo sapiens, UniProt P13569, DEL508-508).
T1 construct: cells isolated from CF patients with the homozygous mutation; endogenous in cells; host or cells: primary human bronchial epithelial (hBE) cells from F508del/F508del CF patients
As to the kind of experiment: Transepithelial Clamp Circuit (TECC-24) conductance assay on primary human bronchial epithelial cells (hBE-TECC). The format is cell-based. From the text:
Transepithelial Clamp Circuit on Human Bronchial Epithelial Cells Conductance Assay:
A cell based assay using the primary human bronchial epithelial cells (hBE) was used as a secondary assay to test novel F508delCFTR correctors for their activity on primary hBE cells with F508del/F508del CFTR mutation. The assay used a TECC-24 (Transepithelial Clamp Circuit for 24 wells) instrument that measures the functionality of the mutated channel by measuring the equivalent short circuit current (Ieq) generated by the polarized epithelial cells. The instrument works by measuring the transepithelial potential difference (Vt) and transepithelial resistance (Rt) in an open circuit format, and the Ieq is calculated by using Ohms law (Ieq=Vt/Rt). The assay was run in a 24-well format and all 24-wells were measured at the same time point giving a higher throughput for this assay.
Primary human bronchial epithelial (hBE) cells from F508del/F508delCFTR patients were expanded from 1×10^6 to 250×10^6 cells (Neuberger T, Burton B, Clark H and VanGoor F; Cystic Fibrosis, Methods in Mole Biol 741; eds. Amaral M D and Kunzelmann K, 2011). For this purpose, cells isolated from CF patients with the homozygous mutation were seeded onto 24 well Corning (Cat #3378) filter plates that were coated with 3T3 conditioned media and grown at an air-liquid interface for 35 days using an Ultroser® G supplemented differentiation media. Apical surface mucus was removed 72 hours before the experiment using 3 mM dithiothreitol (DTT) in phosphate buffered saline (PBS). The apical surface was washed again 24 hours before the experiment using PBS. The cells were incubated with the desired dose response of the corrector compounds 18-24 hours at 37° C., 5% CO2. The corrector compounds are only added on the basolateral side of the epithelial cells.
On the day of measuring the corrector activity on the TECC, the cells were switched into a bicarbonate and serum free F-12 Coon's medium and allowed to equilibrate for 30 minutes in a CO2 free incubator. At the time of measurement, the apical and basolateral sides of the filter were bathed with the F-12 Coon's modification media (with 20 mM 4-(2-hydroxyethyl)-1-piperazineethanesulfonic acid (HEPES), pH 7.4 (using 1 M tris(hydroxymethyl)aminomethane (Tris)), and the measurements were made at 36.5° C. Transepithelial voltage (Vt) and transepithelial resistance (Rt) were measured using a 24 channel transepithelial current clamp (TECC-24). Current responses to the sequential addition of benzamil (apical 6 μM addition; for inhibiting epithelial ENaC channel), forskolin (apical and basolateral 10 μM addition; for activating the CFTR channel), control potentiator (N-(3-carbamoyl-5,5,7,7-tetramethyl-4,7-dihydro-5H-thieno[2,3-c]pyran-2-yl)-1H-pyrazole-5-carboxamide; apical and basolateral 1 μM addition; for potentiating the CFTR channel) and bumetanide (basolateral 20 μM addition; for inhibiting the Na:2Cl:K co-transporter, an indirect measure of inhibiting the Cl— secretion driven by CFTR channel) were measured.
All plates contained negative controls (dimethyl sulfoxide, DMSO) which coupled with the control potentiator (N-(3-carbamoyl-5,5,7,7-tetramethyl-4,7-dihydro-5H-thieno[2,3-c]pyran-2-yl)-1H-pyrazole-5-carboxamide) sets the null response and positive controls (3 μM of 3-[(2R,4R)-4-({[1-(2,2-difluoro-1,3-benzodioxol-5-yl)cyclopropyl]carbonyl}amino)-7-methoxy-3,4-dihydro-2H-chromen-2-yl]benzoic acid) coupled with the control potentiator sets the 100% response to measure the correction of the mutated CFTR channel. The maximum percent activity is reported relative to the positive control value.
The % activity measured at each of the 6 test concentrations of the test compound was normalized to the on-plate positive control using the following formula: % activity=[(test compound response−DMSO response)/(positive control response−DMSO response)]*100 […]

Experiment [2] deals with T2, F508delCFTR (Homo sapiens, UniProt P13569, DEL508-508).
T2 construct: expressed in transfected cells; host or cells: CFBE41o- (human lung derived epithelial cell line), doxycycline-inducible
T2 sequence (P13569 with tags, fused parts or gaps DEL508-508): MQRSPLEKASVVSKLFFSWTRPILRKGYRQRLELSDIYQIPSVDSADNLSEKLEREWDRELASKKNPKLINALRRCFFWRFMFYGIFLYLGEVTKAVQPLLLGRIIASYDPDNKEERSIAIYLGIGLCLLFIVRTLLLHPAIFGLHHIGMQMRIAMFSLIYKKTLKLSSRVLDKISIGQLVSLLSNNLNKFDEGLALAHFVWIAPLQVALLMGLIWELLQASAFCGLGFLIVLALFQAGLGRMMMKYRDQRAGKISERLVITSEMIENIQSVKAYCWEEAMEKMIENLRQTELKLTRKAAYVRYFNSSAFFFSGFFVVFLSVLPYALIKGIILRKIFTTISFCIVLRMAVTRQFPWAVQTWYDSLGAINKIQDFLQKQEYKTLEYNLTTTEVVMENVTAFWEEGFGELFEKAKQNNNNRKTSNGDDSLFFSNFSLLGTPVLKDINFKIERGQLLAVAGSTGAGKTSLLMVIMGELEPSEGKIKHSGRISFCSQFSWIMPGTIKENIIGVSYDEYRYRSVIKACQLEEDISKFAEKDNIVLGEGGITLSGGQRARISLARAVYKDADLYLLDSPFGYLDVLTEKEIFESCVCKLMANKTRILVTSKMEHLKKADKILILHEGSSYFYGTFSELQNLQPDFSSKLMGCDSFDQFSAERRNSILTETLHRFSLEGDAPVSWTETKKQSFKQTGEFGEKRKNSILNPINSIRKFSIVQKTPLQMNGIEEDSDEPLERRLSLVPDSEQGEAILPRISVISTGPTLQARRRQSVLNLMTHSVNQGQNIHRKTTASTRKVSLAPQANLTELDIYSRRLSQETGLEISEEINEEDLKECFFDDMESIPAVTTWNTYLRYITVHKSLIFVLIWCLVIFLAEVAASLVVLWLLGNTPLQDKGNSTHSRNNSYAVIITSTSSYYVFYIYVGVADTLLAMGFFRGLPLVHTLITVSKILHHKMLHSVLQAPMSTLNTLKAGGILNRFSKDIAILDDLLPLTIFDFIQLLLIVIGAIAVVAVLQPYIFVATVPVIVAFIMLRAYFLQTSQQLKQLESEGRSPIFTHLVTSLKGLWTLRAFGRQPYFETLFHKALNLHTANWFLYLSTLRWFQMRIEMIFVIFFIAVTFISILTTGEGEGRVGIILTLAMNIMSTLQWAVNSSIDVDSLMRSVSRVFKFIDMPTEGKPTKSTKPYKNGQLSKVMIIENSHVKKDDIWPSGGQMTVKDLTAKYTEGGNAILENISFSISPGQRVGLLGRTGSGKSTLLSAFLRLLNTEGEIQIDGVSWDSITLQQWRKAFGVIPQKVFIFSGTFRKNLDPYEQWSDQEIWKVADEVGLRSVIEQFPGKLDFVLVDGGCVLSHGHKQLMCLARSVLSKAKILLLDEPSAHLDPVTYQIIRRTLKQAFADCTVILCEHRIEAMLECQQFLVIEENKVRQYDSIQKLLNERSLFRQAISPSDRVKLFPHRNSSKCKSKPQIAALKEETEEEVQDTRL
Kind of experiment: Cell Surface Expression-Horse Radish Peroxidase (CSE-HRP) assay. The format is cell-based. Particulars: CFBE41o-F508delCFTR-HRP cells; for EC50: F508delCFTR cell surface expression, luminescence, 18-24 hours at 33° C., highest concentration 20 μM; for Maximum % activity: maximum at any tested concentration, normalized to on-plate positive control (3 μM). In short, it runs like this: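 CFBE41o- cells expressing doxycycline-induced (0.5 μg/mL, 72 h at 37 °C) F508delCFTR with HRP in the fourth extracellular loop; compounds 8 points, 3-fold from 20 μM, 18-24 h at 33 °C. Surface HRP measured by luminol luminescence, normalised to DMSO and 3 μM reference corrector; EC50 from variable-slope sigmoidal fit of triplicate plates.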

Experimental findings from patent US10118916B2, “Modulators of cystic fibrosis transmembrane conductance regulator protein” (AbbVie S.à.r.l., priority 2016, dated 2018) are described below.

Molecules are shown by their SMILES.

T1 sequence (P13569 with tags, fused parts or gaps DEL508-508): as above

Consider `COc1ccc2c(c1)O[C@@H](c1cccc(C(=O)O)c1)C[C@H]2NC(=O)[C@@]1(C)CCc2cc(C)ccc21` (single isomer, unassigned) [Example 8], for which the EC50 in experiment [1] (equivalent short circuit current, 18-24 hours at 37° C., with control potentiator) was found to be 24 nM; in experiment [2], 100 nM. The Maximum % activity in experiment [1] (relative to positive control (3 μM) coupled with control potentiator) worked out at 85.6%; in experiment [2] it was 91.3%.

With `COc1ccc2c(c1)O[C@@H](c1ccc(C(=O)O)cc1)C[C@H]2NC(=O)C1(c2ccc(Cl)cc2)CC1` [Example 108, 4-[(2R,4R)-4-{[1-(4-chlorophenyl)cyclopropane-1-carbonyl]amino}-7-methoxy-3,4-dihydro-2H-1-benzopyran-2-yl]benzoic acid], in experiment [2], the response was half-maximal at 170 nM (EC50) and the Maximum % activity is given as 77.7%.

For `COc1ccc2c(c1)O[C@@H](c1ccc(C(=O)O)cc1)C[C@H]2NC(=O)C(C)(C)c1ccc(OC(F)(F)F)cc1` [Example 109, 4-[(2R,4R)-7-methoxy-4-{2-methyl-2-[4-(trifluoromethoxy)phenyl]propanamido}-3,4-dihydro-2H-1-benzopyran-2-yl]benzoic acid], in experiment [2], the EC50 worked out at 1360 nM and the Maximum % activity was determined as 93.0%.

In experiment [2], `COc1ccc2c(c1)O[C@@H](c1ccc(C(=O)O)cc1)C[C@H]2NC(=O)C(C)(C)c1ccc(Cl)cc1` [Example 110, 4-{(2R,4R)-4-[2-(4-chlorophenyl)-2-methylpropanamido]-7-methoxy-3,4-dihydro-2H-1-benzopyran-2-yl}benzoic acid] yielded an EC50 of 310 nM and a Maximum % activity of 85.0%.

Turning to `COc1ccc2c(c1)O[C@@H](c1ccc(C(=O)O)cc1)C[C@H]2NC(=O)C(C)(C)c1ccc(F)cc1` [Example 111, 4-{(2R,4R)-4-[2-(4-fluorophenyl)-2-methylpropanamido]-7-methoxy-3,4-dihydro-2H-1-benzopyran-2-yl}benzoic acid], in experiment [2], the EC50 was determined as 840 nM and the Maximum % activity worked out at 47.7%.

Take `COc1ccc2c(c1)O[C@@H](c1ccc(C(=O)O)cc1)C[C@H]2NC(=O)C(C)(C)c1ccc2c(c1)OCCO2` [Example 112, 4-{(2R,4R)-4-[2-(2,3-dihydro-1,4-benzodioxin-6-yl)-2-methylpropanamido]-7-methoxy-3,4-dihydro-2H-1-benzopyran-2-yl}benzoic acid]: in experiment [2], the EC50 came to 360 nM and the Maximum % activity came out at 59.9%.

In experiment [2], `COc1ccc2c(c1)O[C@@H](c1ccc(C(=O)O)cc1)C[C@H]2NC(=O)C(C)(C)c1ccc(OC)c(F)c1` [Example 113, 4-{(2R,4R)-4-[2-(3-fluoro-4-methoxyphenyl)-2-methylpropanamido]-7-methoxy-3,4-dihydro-2H-1-benzopyran-2-yl}benzoic acid] gave an EC50 of 60 nM and a Maximum % activity of 43.5%.

On to `COc1ccc(C2(C(=O)N[C@@H]3C[C@H](c4ccc(C(=O)O)cc4)Oc4cc(OC)ccc43)CCCC2)cc1` [Example 114, 4-[(2R,4R)-7-methoxy-4-{[1-(4-methoxyphenyl)cyclopentane-1-carbonyl]amino}-3,4-dihydro-2H-1-benzopyran-2-yl]benzoic acid], for which, in experiment [2], the EC50 is over 20000 nM and the Maximum % activity is reported as 2.2%.

With `COc1ccc(C2(C(=O)N[C@@H]3C[C@H](c4ccc(C(=O)O)cc4)Oc4cc(OC)ccc43)CCC2)cc1` [Example 115, 4-[(2R,4R)-7-methoxy-4-{[1-(4-methoxyphenyl)cyclobutane-1-carbonyl]amino}-3,4-dihydro-2H-1-benzopyran-2-yl]benzoic acid], in experiment [2], the EC50 came out at 630 nM and the Maximum % activity is 69.8%.

Consider `COc1ccc2c(c1)O[C@@H](c1ccc(C(=O)O)cc1)C[C@H]2NC(=O)C1(c2ccc(OC)c(OC)c2)CCC1` [Example 116, 4-[(2R,4R)-4-{[1-(3,4-dimethoxyphenyl)cyclobutane-1-carbonyl]amino}-7-methoxy-3,4-dihydro-2H-1-benzopyran-2-yl]benzoic acid], for which, in experiment [2], the midpoint of the response, the EC50, lay at 3250 nM and the Maximum % activity was 27.6%.

For `COc1ccc(C(C)(C)C(=O)N[C@@H]2C[C@H](c3ccc(C(=O)O)cc3)Oc3cc(OC)ccc32)c(F)c1` [Example 117, 4-{(2R,4R)-4-[2-(2-fluoro-4-methoxyphenyl)-2-methylpropanamido]-7-methoxy-3,4-dihydro-2H-1-benzopyran-2-yl}benzoic acid], in experiment [2], the EC50 turned out to be 350 nM and the Maximum % activity was found to be 47.0%.

In experiment [2], `COc1ccc2c(c1)O[C@@H](c1ccc(C(=O)O)cc1)C[C@H]2NC(=O)C(C)(C)Oc1ccc(F)cc1` [Example 118, 4-{(2R,4R)-4-[2-(4-fluorophenoxy)-2-methylpropanamido]-7-methoxy-3,4-dihydro-2H-1-benzopyran-2-yl}benzoic acid] returned an EC50 of over 20000 nM and a Maximum % activity of 16.3%.

Regarding `COc1ccc2c(c1)O[C@@H](c1ccc(C(=O)O)cc1)C[C@H]2NC(=O)C(C)(C)Oc1ccc(Cl)cc1` [Example 119, 4-{(2R,4R)-4-[2-(4-chlorophenoxy)-2-methylpropanamido]-7-methoxy-3,4-dihydro-2H-1-benzopyran-2-yl}benzoic acid], in experiment [2], it took 2980 nM to reach a half-maximal effect (EC50) and the Maximum % activity came out at 27.4%.

On to `COc1ccc2c(c1)O[C@@H](c1ccc(C(=O)O)cc1)C[C@H]2NC(=O)C(C)(C)c1ccc2c(c1)OCO2` [Example 120, 4-{(2R,4R)-4-[2-(2H-1,3-benzodioxol-5-yl)-2-methylpropanamido]-7-methoxy-3,4-dihydro-2H-1-benzopyran-2-yl}benzoic acid], for which, in experiment [2], the EC50 turned out to be 50 nM and the Maximum % activity amounted to 73.9%.

In experiment [2], `COc1ccc(C(C)(C)C(=O)N[C@@H]2C[C@H](c3ccc(C(=O)O)cc3)Oc3cc(OC)ccc32)cc1` [Example 121, 4-{(2R,4R)-7-methoxy-4-[2-(4-methoxyphenyl)-2-methylpropanamido]-3,4-dihydro-2H-1-benzopyran-2-yl}benzoic acid] yielded an EC50 of 70 nM and a Maximum % activity of 49.6%.

In experiment [2], `COc1ccc2c(c1)O[C@@H](c1cccc(C(=O)O)c1)C[C@H]2NC(=O)C1(C)CCc2cc(C)ccc21` (stereo partly drawn) [Example 122, 3-{(2R,4R)-4-[(1,5-dimethyl-2,3-dihydro-1H-indene-1-carbonyl)amino]-7-methoxy-3,4-dihydro-2H-1-benzopyran-2-yl}benzoic acid] displayed an EC50 of 310 nM and a Maximum % activity of 86.2%.

In the case of `COC(=O)c1ccc([C@H]2C[C@@H](NC(=O)C3(C)CCc4cc(C)ccc43)c3ccc(OC)cc3O2)cc1` (stereo partly drawn) [Example 124, methyl 4-{(2R,4R)-4-[(1,5-dimethyl-2,3-dihydro-1H-indene-1-carbonyl)amino]-7-methoxy-3,4-dihydro-2H-1-benzopyran-2-yl}benzoate], in experiment [2], a half-maximal response (EC50) required 460 nM and the Maximum % activity came to 87.7%.
